Here are results for three molecules from US7384915B2, “Chimeric insulin-gad proteins for treating patients with type 1 diabetes or at risk of developing type 1 diabetes” (Alexion Pharmaceuticals, Inc., priority 1997, dated 2008).

Assay [1] has as its system non-diabetic male NOD recipients. The protocol: CYTOXAN induction experiments: CYTOXAN (Cyclophosphamide) treatment can increase the incidence and accelerate the onset of diabetes in non-diabetic NOD mice. Randomly selected, non-diabetic male NOD mice, which were 100 to 110 days of age, were injected (ip) with cyclophosphamide (250 mg/kg) on day 0.
All the mice were subjected to urine glucose measurement 2-3 times per week for a period of 21 days after cyclophosphamide injection. The onset of diabetes was recorded as the first point at which two consecutive days of positive urine glucose results were obtained. Blood glucose was also measured to confirm the urine glucose results. […] At day 21, these mice were sacrificed and examined histologically.

For assay [2], the system named is non-diabetic male NOD mice. Put plainly: CYTOXAN (cyclophosphamide) induced IDDM model, antigen treatment. It is filed as in vivo, mouse. As to conditions: FIG. 3. The text has this:
Experimental Methods Non-obese diabetic (NOD) mice are a strain of mice that are prone to the development of diabetes, and represent an accepted model system for the study of diabetes mellitus. These mice, designated NOD/MrkTacfBR, were purchased from Taconic Farms (Germantown, N.Y.). NOD SCID mice, designated NOD/SCID, are available from the Jackson Laboratories, Bar Harbor, Me. The incidence of diabetes by 200 days of age in these mice is 80% in females and 50% in males. At 110 days of age, fewer than 15% of the male NOD mice became diabetic. […] In contrast, animals treated with either ICB or either of GAD 65 250-273 or 520-555 peptides, experienced reductions to less than 50% incidence of diabetes. The therapeutic effects of treatment with combinations of ICB and the two GAD peptides were then examined (FIG. 3).

For assay [3], the system named is NOD/SCID mice injected with diabetogenic spleen cells. Kind of assay: NOD/SCID adoptive transfer model of IDDM. As to conditions: IV, 300 ugs of antigen twice daily every other day, day 3 to day 9 after spleen cell transfer; FIG. 5. The assay is classed as in vivo, mouse. How it is done: Experiments in the NOD/SCID Adoptive Transfer Model: Spleen mononuclear cells were harvested from diabetic NOD mice of recent disease onset (diabetic not more than 3 weeks) and about 35×10^6 of these spleen cells in 0.2 ml of PBS were injected intravenously into 6-8 week old NOD/SCID mice. Onset of diabetes was monitored biweekly by urine glucose testing and confirmed by blood glucose testing on day 28 relative to the time of spleen cell transfer. At day 28, these mice were sacrificed and examined histologically.
Diabetogenic splenic mononuclear cells were harvested from newly diabetic NOD mice (onset less than 3 weeks previous). To initiate the destruction of islet beta cells and the development of diabetes, 8-12 week old NOD/SCID mice were injected intravenously with 35×10^6 diabetogenic spleen cells. The incidence and onset of diabetes were monitored biweekly by urine glucose testing and confirmed by blood glucose testing at the end of the experiment. The average onset time of diabetes after disease induction was approximately 25 days. IV treatment with IG2, IG3, or islet beta cell antigens was initiated on day 3. Animals were treated with 300 ugs of antigen twice daily every other day for a period of six days (from day 3 to day 9, where the time of spleen cell transfer was day 0).

Where two headings read alike, the source gives them in different places.

On to `O=P1(N(CCCl)CCCl)NCCCO1` (centres unmarked) [CYTOXAN, cyclophosphamide], for which, in assay [1] (CYTOXAN 200 mg/kg), the “# Diabetic/Total” value is on record as 2/7, the “% diabetic” value is recorded as 28.6% and the Mean onset time was 12. Moreover, in assay [1] (CYTOXAN 250 mg/kg), the “# Diabetic/Total” value is 5/7, the “% diabetic” value is 71.4% and the Mean onset time worked out at 11. Besides, in assay [1] (CYTOXAN 300 mg/kg), the “# Diabetic/Total” value is on record as 5/7, the “% diabetic” value stood at 71.4% and the Mean onset time was determined as 12.6.
“GAD 65 520-555: human GAD 65 peptide 520-555, sequence corresponding to amino acid residues 139-173 of SEQ ID NO:2 (EERMSRLSKVAPVIKARMMEYGTTMVSYQPLGDKV; IG2 fusion protein for hGAD65 (human glutamate decarboxylase))”: the “effect of addition to the ICB with GAD 65 250-273 combination on therapeutic efficacy” value in assay [2] was “appeared to inhibit the therapeutic efficacy”.
In the case of “ICB: Oxidized bovine insulin Chain B purchased from Sigma (catalog no. I-6383)”, the “onset of disease in NOD/SCID recipients” value in assay [3] is recorded as “only a slight delay in disease onset”.
